Assay results published in paper PMC9329436, “Optimization of the 4-anilinoquin(az)oline scaffold as epidermal growth factor receptor (EGFR) inhibitors for chordoma utilizing a toxicology profiling assay platform” (Scientific Reports, 2022).

These molecules were tested on U-CH1 chordoma cell line (assay: Cell viability assay (alamarBlue, 72 h), U-CH1). Details: Homo sapiens, UCH1, n = 4, 72 h.
Assay type: cell-based, human
Experimental: (§1) Chordoma cell lines were cultured as described previously[10],[12],[33],[34]. Briefly, U-CH1 and U-CH2 cell lines were cultured in 4:1 IMDM:RPMI medium supplemented with 10% fetal bovine serum (FBS) and 1% penicillin/streptomycin in gel-coated flasks. […] CH22, UM-Chor1, U-CH12, and U-CH7 cell lines were cultured in RPMI medium supplemented with 10% FBS and 1% penicillin/streptomycin. The cell lines all undergo regular mycoplasma screening.
(§2) Cells were seeded in 384 well plates and were treated with test compound in quadruplicate 24 h after plating. Cell viability was assessed at 72 h using alamarBlue (ThermoFisher, USA). […] IC50 values were determined by four-parameter nonlinear regression analyses using GraphPad Prism™ version 8 software (San Diego, CA).

Row | SMILES | IC50 [µM]
1 | C#Cc1cccc(Nc2c(C#N)cnc3cc(OC)c(OC)cc23)c1 [Compound 22, 4-((3-ethynylphenyl)amino)-6,7-dimethoxyquinoline-3-carbonitrile] | 4.1

Same assay, conditions: n = 4, 72 h

Row | SMILES | IC50 [µM]
2 | C#Cc1cccc(Nc2ncnc3ccc(C)cc23)c1 [Compound 4] | 15
3 | C#Cc1cccc(Nc2c(C#N)cnc3cc(Cl)ccc23)c1 [Compound 30] | > 100
4 | C#Cc1cccc(Nc2c(C#N)cnc3ccc(S(C)(=O)=O)cc23)c1 [Compound 29] | 92
5 | C#Cc1cccc(Nc2ncnc3cc4c(cc23)OCO4)c1 [Compound 20] | 22
6 | C#Cc1cccc(Nc2c(C#N)cnc3ccccc23)c1 [Compound 24] | 34
7 | C#Cc1cccc(Nc2c(C#N)cnc3ccc(F)cc23)c1 [Compound 25] | 23
8 | C#Cc1cccc(Nc2c(C#N)cnc3cc(OC)ccc23)c1 [Compound 33] | 4.1
9 | C#Cc1cccc(Nc2ncnc3ccc(S(C)(=O)=O)cc23)c1 [Compound 19] | 45
10 | C#Cc1cccc(Nc2c(C#N)cnc3cc(Br)ccc23)c1 [Compound 31] | > 100
11 | C#Cc1cccc(Nc2ncnc3ccc(Br)cc23)c1 [Compound 8] | 16
12 | C#Cc1cccc(Nc2ncnc3ccccc23)c1 [Compound 3] | 35
13 | C#Cc1cccc(Nc2ncnc3cc(Br)ccc23)c1 [Compound 14] | 54

Each molecule was assayed on U-CH2 chordoma cell line (assay: Cell viability assay (alamarBlue, 72 h), U-CH2). Details: Homo sapiens, UCH2, n = 4, 72 h.
Assay type: cell-based, human
Experimental: as §1, §2

Row | SMILES | IC50 [µM]
14 | C#Cc1cccc(Nc2c(C#N)cnc3cc(OC)c(OC)cc23)c1 [Compound 22, 4-((3-ethynylphenyl)amino)-6,7-dimethoxyquinoline-3-carbonitrile] | 36

Same assay, conditions: n = 4, 72 h

Row | SMILES | IC50 [µM]
15 | C#Cc1cccc(Nc2ncnc3ccc(C)cc23)c1 [Compound 4] | > 100
16 | C#Cc1cccc(Nc2c(C#N)cnc3cc(Cl)ccc23)c1 [Compound 30] | > 100
17 | C#Cc1cccc(Nc2c(C#N)cnc3ccc(S(C)(=O)=O)cc23)c1 [Compound 29] | 52
18 | C#Cc1cccc(Nc2ncnc3cc4c(cc23)OCO4)c1 [Compound 20] | > 100
19 | C#Cc1cccc(Nc2c(C#N)cnc3ccccc23)c1 [Compound 24] | > 100
20 | C#Cc1cccc(Nc2c(C#N)cnc3ccc(F)cc23)c1 [Compound 25] | > 100
21 | C#Cc1cccc(Nc2c(C#N)cnc3cc(OC)ccc23)c1 [Compound 33] | 40
22 | C#Cc1cccc(Nc2ncnc3ccc(S(C)(=O)=O)cc23)c1 [Compound 19] | 52
23 | C#Cc1cccc(Nc2c(C#N)cnc3cc(Br)ccc23)c1 [Compound 31] | > 100
24 | C#Cc1cccc(Nc2ncnc3ccc(Br)cc23)c1 [Compound 8] | > 100
25 | C#Cc1cccc(Nc2ncnc3ccccc23)c1 [Compound 3] | 52
26 | C#Cc1cccc(Nc2ncnc3cc(Br)ccc23)c1 [Compound 14] | > 100

The molecules below were run on HL60 cells (assay: AsedaSciences SYSTEMETRIC Cell Health Screen (flow cytometry toxicity profiling)). Details: HL60, 4 h, 5 nM–100 µM, probability 0–1, n = 2.
In short: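 Risk scores derive from a logistic-regression ML classifier comparing flow-cytometric stress phenotypes with those of 300 reference compounds of known high or low human risk. Phenotypes: light scatter plus fluorescent physiological dyes, twelve parameters, no gating. Compounds tested 5 nM–100 µM (3× steps, duplicate) on HL60 cells, 4 h, 37 °C.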

Row | SMILES | CC: Cell Cycle score | CM: Cell morphology score | CMI: Cell membrane integrity score | GSH: Glutathione score | MMP: Mitochondrial membrane depolarization score | NMI1: Nuclear membrane integrity 1 score | NMI2: Nuclear membrane integrity 2 score | ROS: Reactive superoxide species score
27 | C#Cc1cccc(Nc2ncnc3ccc(C)cc23)c1 [Compound 4] | 0.65 | 0.0051 | 0.21 | 0.12 | 0.49 | 0.059 | 0.17 | 0.20
28 | C#Cc1cccc(Nc2ncnc3cc4c(cc23)OCO4)c1 [Compound 20] | 0.13 | 0.0019 | 0.0038 | 0.087 | 0.016 | 0.72 | 0.0045 | 0.027
29 | C#Cc1cccc(Nc2ncnc3ccc(S(C)(=O)=O)cc23)c1 [Compound 19] | 0.33 | 0.0013 | 0.0057 | 0.044 | 0.21 | 0.36 | 0.089 | 0.055
30 | C#Cc1cccc(Nc2ncnc3ccc(Br)cc23)c1 [Compound 8] | 0.087 | 0.0037 | 0.0024 | 0.05 | 0.11 | 0.13 | 0.020 | 0.083
31 | C#Cc1cccc(Nc2ncnc3ccccc23)c1 [Compound 3] | 0.86 | 0.96 | 0.99 | 0.98 | 1.00 | 0.53 | 0.76 | 0.98
32 | C#Cc1cccc(Nc2ncnc3cc(Br)ccc23)c1 [Compound 14] | 0.74 | 0.024 | 0.41 | 0.010 | 0.17 | 0.033 | 0.3 | 0.86

Same assay, conditions: HL60, 4 h, 5 nM–100 µM, probability (0–1) of high-risk class, n = 2

Row | SMILES | CHI: Cell Health Index
33 | C#Cc1cccc(Nc2ncnc3ccc(C)cc23)c1 [Compound 4] | 0.31
34 | C#Cc1cccc(Nc2ncnc3cc4c(cc23)OCO4)c1 [Compound 20] | 0.18
35 | C#Cc1cccc(Nc2ncnc3ccc(S(C)(=O)=O)cc23)c1 [Compound 19] | 0.22
36 | C#Cc1cccc(Nc2ncnc3ccc(Br)cc23)c1 [Compound 8] | 0.19
37 | C#Cc1cccc(Nc2ncnc3ccccc23)c1 [Compound 3] | 0.74
38 | C#Cc1cccc(Nc2ncnc3cc(Br)ccc23)c1 [Compound 14] | 0.33

Same assay, conditions: SYSTEMETRIC Cell Health Screen; assay n=2

Row | SMILES | Cell Health Toxcity Profile CC (DyeCycle Violet) | Cell Health Toxcity Profile CM (Cell morphology) | Cell Health Toxcity Profile CMI (Cell membrane integrity) | Cell Health Toxcity Profile GSH (Glutathione) | Cell Health Toxcity Profile MMP (Mitochondrial membrane depolarization) | Cell Health Toxcity Profile NMI1 (Nuclear membrane integrity 1) | Cell Health Toxcity Profile NMI2 (Nuclear membrane integrity 2) | Cell Health Toxcity Profile ROS (Reactive superoxide species)
39 | C#Cc1cccc(Nc2c(C#N)cnc3cc(Cl)ccc23)c1 [Compound 30] | 0.17 | 0.31 | 0.25 | 0.065 | 0.080 | 0.69 | 0.041 | 0.44
40 | C#Cc1cccc(Nc2c(C#N)cnc3ccc(S(C)(=O)=O)cc23)c1 [Compound 29] | 0.071 | 0.003 | 0.037 | 0.039 | 0.021 | 0.18 | 0.009 | 0.046
41 | C#Cc1cccc(Nc2c(C#N)cnc3ccccc23)c1 [Compound 24] | 0.76 | 0.99 | 1.00 | 0.98 | 0.97 | 0.85 | 0.81 | 0.98
42 | C#Cc1cccc(Nc2c(C#N)cnc3cc(OC)c(OC)cc23)c1 [Compound 22, 4-((3-ethynylphenyl)amino)-6,7-dimethoxyquinoline-3-carbonitrile] | 0.33 | 0.35 | 0.77 | 0.071 | 0.39 | 0.67 | 0.29 | 0.81
43 | C#Cc1cccc(Nc2c(C#N)cnc3ccc(F)cc23)c1 [Compound 25] | 0.76 | 0.98 | 0.99 | 0.97 | 0.96 | 0.71 | 0.72 | 0.93
44 | C#Cc1cccc(Nc2c(C#N)cnc3cc(OC)ccc23)c1 [Compound 33] | 0.81 | 0.97 | 0.90 | 0.78 | 0.22 | 0.20 | 0.16 | 0.68
45 | C#Cc1cccc(Nc2c(C#N)cnc3cc(Br)ccc23)c1 [Compound 31] | 0.92 | 0.95 | 0.88 | 0.92 | 0.84 | 0.45 | 0.34 | 0.87

Same assay, conditions: SYSTEMETRIC Cell Health Screen; classifier output; assay n=2

Row | SMILES | Cell Health Toxcity Profile CHI
46 | C#Cc1cccc(Nc2c(C#N)cnc3cc(Cl)ccc23)c1 [Compound 30] | 0.35
47 | C#Cc1cccc(Nc2c(C#N)cnc3ccc(S(C)(=O)=O)cc23)c1 [Compound 29] | 0.16
48 | C#Cc1cccc(Nc2c(C#N)cnc3ccccc23)c1 [Compound 24] | 0.70
49 | C#Cc1cccc(Nc2c(C#N)cnc3cc(OC)c(OC)cc23)c1 [Compound 22, 4-((3-ethynylphenyl)amino)-6,7-dimethoxyquinoline-3-carbonitrile] | 0.40
50 | C#Cc1cccc(Nc2c(C#N)cnc3ccc(F)cc23)c1 [Compound 25] | 0.69
51 | C#Cc1cccc(Nc2c(C#N)cnc3cc(OC)ccc23)c1 [Compound 33] | 0.44
52 | C#Cc1cccc(Nc2c(C#N)cnc3cc(Br)ccc23)c1 [Compound 31] | 0.59
